Experiment: molar heat capacity at constant pressure; xn = mol fraction of the nth substance listed
Conditions: 101 kPa, Liquid, Small sample (50 mg) DSC, x2 = 0

O [water] + CCCCCC[n+]1ccc2ccccc2c1.N#C[S-]
Conditions | molar heat capacity at constant pressure [J/K/mol]
288.15 K | 75.9
293.15 K | 75.8
298.15 K | 75.7
303.15 K | 75.7
308.15 K | 75.6
313.15 K | 75.5
318.15 K | 75.5
323.15 K | 75.4
328.15 K | 75.4
333.15 K | 75.3
338.15 K | 75.3
343.15 K | 75.3

From the NIST ThermoML archive (doi:10.1016/j.jct.2012.06.030)
